Structures are written as SMILES. Converted amounts (≈) assume the structure as drawn.

Common to all, as to type: cell-based
For assay [1], the system named is CACO2 cells (intestinal carcinoma cell line). Description: MTT viability assay, CACO2. To be noted: Homo sapiens, Caco-2, 24 h. Here is the method:
The Cytotoxic activity was tested using the viability assay following the method reported by Mosmann, T., 1983 [21, 22]. HepG2 cells (liver carcinoma cell line), MCF-7cells (breast carcinoma cell line) and CACO2 cells (intestinal carcinoma cell line) (American Type Culture Collection ATCC, Rockville, MD) were applied through the tissue Culture Unit, the Egyptian Organization for Biological Products and Vaccines, Vacsera, Egypt. In brief, the tumor cell lines were suspended in medium at concentration 5 × 10^4 cell/ well in Corning® 96-well tissue culture plates and then incubated for 24 h. The alcoholic extract of F. cretica was then added into 96-well plates (three replicates) to achieve twelve concentrations. Six vehicle controls with media or 0.5% DMSO were run for each 96 well plate as a control. After incubating for 24 h, the number of viable cells was determined by the MTT test. Briefly, the media was removed from the 96 well plates and replaced with 100 µl of fresh culture RPMI 1640 medium without phenol red then 10 µl of the 12 mM MTT stock solution (5 mg of MTT in 1 ml of PBS) to each well including the untreated controls. […] Then, the optical density (OD) was measured at 590 nm with the microplate reader (SunRise, TECAN, Inc, USA) to determine the number of viable cells and the percentage of viability was calculated as follows: […]
(In general: Formazan colour is commonly taken as a measure of viable cells.)

The test system of the next assay is Caspase-9 (human). Description: Caspase-9 level ELISA in MCF-7. Here is the method: To measure caspase-9 levels, DRG® Caspase-9 (human) ELISA (EIA-4860) kits were used. In brief, the breast cancer cell line (MCF-7) extracts were prepared after elevation of apoptosis. The extracts were suspended in lysis buffer, and incubated at room temperature for 60 min and then centrifuge for 15 min. The microwell strips were washed with 400 µl wash buffer, followed by addition of 100 µl of sample diluent in duplicate to all standard wells, 100 µl of sample diluent in duplicate to the blank wells, 50 µl of sample diluent to the sample, and 50 µl of each sample in duplicate to the sample wells. Then the detection antibody 50 µl was added to all wells and incubated for 2 h at room temperature. The diluted antirabbit-IgG-HRP (anti-rabbit-immunoglobulin G-horseradish peroxidase) 100 µl was added to all wells together with blank wells. TMB substrate solution 100 µl was added to all wells and incubated for 15 min. at room temperature. Finally, the enzyme reaction was stopped by adding 100 µl of the stop solution to all wells. The absorbance of each microwell was measured at 450 nm using a spectrophotometer. The absorbance of the samples and standard were recorded.
A general note: In an ELISA, binding on a coated surface is turned into a signal by an enzyme label.

Assay [2] deals with nitric oxide formation by LPS-stimulated RAW 264.7 murine macrophage cells. As to the kind of experiment: Nitric oxide inhibitory assay (Griess nitrite assay). To be noted: Mus musculus, RAW264.7; LPS-stimulated RAW 264.7, 24 h. Here is the method: RAW 264.7 murine macrophage cells were stimulated by LPS (Lipopolysaccharide) to produce inflammatory mediators as NO, the produced nitrite (NO2-) was measured using the Griess reagent, RAW 264.7 murine macrophage-like cells were grown in phenol red-free RPMI-1640 containing 10% FBS. Cells were incubated for 24 h with LPS ([…]) in the presence of different concentrations of the plant extract. Then 50 µl of supernatant from each well of cell culture was transferred into 96-well microplates and equal volume of Griess reagent (1% sulfanilamide, 0.1% N-(1-naphthyl)-ethylenediamine hydrochloride, 2.5% H3PO4) was then added to the supernatant at room temperature. The absorbance at 550 nm was determined in UV-Vis microplate reader after 10 min. The concentrations of nitrite were derived from regression analysis using serial dilutions of sodium nitrite as a standard. Percentage of inhibition was calculated based on the ability of the extract to inhibit nitric oxide formation by cells compared with the control (cells in the media without the extract containing triggering agents and DMSO), which was considered as 0% inhibition.
On the technique in general: Griess reagent forms a coloured azo dye with nitrite.

The term IC50 denotes the midpoint of a concentration-inhibition curve. A high value points to a need for much substance. For `COc1cccc2c1C(=O)c1c(O)c3c(c(O)c1C2=O)C[C@@](O)(C(=O)CO)C[C@@H]3O[C@H]1C[C@H](N)[C@H](O)[C@H](C)O1` [Doxorubicin], in assay [1], the IC50 came out at 7.75 ± 0.4 µg/mL (≈ 14.3 µM). The same compound registered a Caspase-9 level induction in the assay with Caspase-9 (human) (MCF-7) of 8.67 folds. For the same compound, the “Caspase-9 (Conc.)” value with Caspase-9 (human) (breast human carcinoma cell line (MCF-7), control 2.986 ± 0.31) was 25.84 ± 0.39 ng/mL.

Turning to `O=C1O[C@H]([C@@H](O)CO)C(O)=C1O` [Ascorbic acid], in assay [2], the IC50 was found to be 18.7 ± 0.77 µg/mL (≈ 106 µM).
